The numbers were not newly measured in patent US11872314B2, “Pharmaceutical compositions” (Shin Nippon Biomedical Laboratories, Ltd., priority 2016, dated 2024), which cites them from elsewhere.

The conditions of the series: at 25° C.

As for `COc1ccc2c(c1)c(CC(=O)O)c(C)n2C(=O)c1ccc(Cl)cc1` [Indomethacin, indomethacin], the Water solbility is 0.937 µg/mL.
